The values below come from patent publication KR20200058863A, “루테인 장용성 고체분산체를 유효성분으로 함유하는 위산보호용 조성물 및 이를 포함하는 경구용 제제” (중앙대학교 산학협력단, priority 2018, dated 2020).

The nature of data set [1]: physchem. The following applies: artificial gastric fluid, pH 1.2.
A short description of data set [2]: In vitro dissolution in artificial gastric/intestinal fluid and successive pH (USP 29 apparatus 2). The data set is classed as physicochemical. As to conditions: artificial gastric fluid pH 1.2, 120 min.
The conditions of data set [3]: intestinal fluid, pH 6.8; spectra over 24 h.
The conditions of data set [4]: intestinal condition pH 6.8, 37 ± 0.5 ℃, 100 rpm.
Data set [5] in a line: physchem. As to conditions: ph 1.2 solution.
Data set [6] is described as follows: PXRD crystallinity of lutein and solid dispersions. The class given is physicochemical. As to conditions: 2θ 5° to 50°, room temperature.
Data set [7] in a line: physchem. As to conditions: artificial gastric fluid, pH 1.2. This is another data set of the same source.

Molecules are shown by their SMILES. Where two headings read alike, the source gives them in different places.

For the compound `CC1=C[C@H](O)CC(C)(C)[C@H]1/C=C/C(C)=C/C=C/C(C)=C/C=C/C=C(C)/C=C/C=C(C)/C=C/C1=C(C)C[C@@H](O)CC1(C)C` [루테인], in “physchem [1]”, the degraded at 2 h was 70%. For the same compound, the acid resistance entry in data set [2] (37 ± 0.5 ℃, 100 rpm) was “산저항성을 나타내었으며”. In addition, the “lutein detected in dissolution medium” value in data set [2] (low solubility) is recorded as “검출되지 않았다”. The “change of lutein absorbance spectrum” value in data set [3] is recorded as “유의한 변화가 확인되지 않았다”. The change of lutein result in data set [4] is on record as “루테인 변화가 나타나지 않았다”. In addition, the lutein content is 10.31 ± 0.29 mg (pH 1.2, 0 h) and 1.51 ± 0.03 mg (pH 1.2, after 12 h). Moreover, under “pH 1.2, 0 h”, the lutein ratio is given as 100%. For the same compound, in the data set “physchem [5]”, the share remaining at 12 h was 14.7%. Moreover, the “crystallinity (PXRD peaks)” value in data set [6] is given as “다양한 특유의 피크를 갖는 고도의 결정구조”. Further, the degraded at 24 h in the data set “physchem [7]” was around 50%.

As a reminder, the amount remaining is the share of the starting amount still present when the sample was taken.
